In general, IC50 refers to the midpoint of a concentration-inhibition curve. The half-life is the time needed for the level to fall by half in the phase considered.

In one series the test system is HCT116. Description: cells. The format is cell-based, human. The note with it: 72 hours, n = 3, mean. The protocol: (§1) Monolayer cultures of human carcinoma cells were harvested using trypsin-EDTA, and the cells counted and resuspended to 1×10^5/mL in RPMI-1640 or DMEM containing 10% FBS. Cells (0.1 mL/well) were added to each well of 96 well microtiter plates and incubated overnight at 37° C. in a humidified atmosphere of 5% CO2. […] All dilutions were performed in triplicate. The drug treated cells were incubated for another 72 hours at 37° C. in a humidified atmosphere of 5% CO2. 50 μL of cold TCA (50%, wt/vol) was added to each well and incubated the plates at 4° C. for 1 hour. The plates were washed with slow-running tap water for three times and the dried at room temperature. 50 μL of Sulforhodamine B solution (0.4%, wt/vol) was added to each well and the plates were left at room temperature for 1 hour. The plates were rinsed with acetic acid solution (1%, vol/vol) to remove the unbound dye and dried at room temperature. 200 μL of 10 mM Tris base solution was added to each well and the plates were shaken on a gyratory shaker for 15 minutes to solubilize the protein-bound dye. Well optical density at 510 nm was measured in a microplate reader, and the IC50 was calculated by GraphPad from three separated experiments with triplicate in each experiment and expressed as mean (Table 1).

A further series concerns HepG2. Description: cells. The note with it: 72 hours, n = 3, mean. It is filed as cell-based, human. The protocol: as §1
In another series the test system is Balb/c mice. Description: In vivo maximum tolerated dose (MTD) in Balb/c mice. Further details: mortality: dose or concentration left out as unconfirmed.
For series [1], the system named is CT-26 syngenic colon cancer model. Description: In vivo antitumor activity, subcutaneous CT-26 syngenic colon cancer model. Also noted: species or system Balb/c mice. Conditions: QW, intravenous, three injections. The procedure:
The tumoricidal effect of peptide-drug conjugate N^α-succinamic acid-Ala-Ala-Asn-PABC-mitomycin [8] was evaluated on subcutaneous CT-26 syngenic colon cancer model in Balb/c mice. Each mouse was inoculated subcutaneously at the right flank region with CT-26 tumor cells (5×10^5) in 0.1 mL of PBS.

Another series can be described thus: Human plasma stability. The procedure:
100 μL aliquots were removed at the time points of 0, 0.25, 0.5, 1, 2, 4, 6 hours and diluted with 400 μL cold acetonitrile containing tolbutamide (200 ng/mL) as internal standard. The samples were centrifuged at 14,000 rpm for 4 minutes. 100 μL of above supernatants were diluted with 300 μL of 0.1% formic acid HPLC water and 10 μL was taken for LC/MS/MS analysis (column: C-18; mobile phase: 0.1% formic acid in water/0.1% formic acid in acetonitrile; ion transition: Q1 ion (m/z)=840.5, Q2 ion (m/z)=462.2).

[2] abbreviates: 25, 50 and 100 mg/kg, once per week, three injections total for 24 days.

Regarding `CO[C@@]12[C@H](COC(N)=O)C3=C(C(=O)C(C)=C(N)C3=O)N1C[C@@H]1N[C@@H]12` [mitomycin, reference compound], the IC50 in the series with HCT116 (Homo sapiens, HCT-116) worked out at 116 nM; with HepG2 (Homo sapiens, HepG2) it was 143 nM. Besides, the mortality entry with Balb/c mice was “animal death was observed”. In addition, the “tumor growth T/C” value in series [1] (5 mg/kg (MTD dose)) worked out at 50.4%.
Consider `CO[C@@]12[C@H](COC(N)=O)C3=C(C(=O)C(C)=C(N)C3=O)N1C[C@H]1[C@@H]2N1C(=O)OCc1ccc(NC(=O)[C@H](CC(N)=O)NC(=O)[C@H](C)NC(=O)[C@H](C)NC(=O)CCC(=O)O)cc1` [compound 8, N^α-succinamic acid-Ala-Ala-Asn-PABC-mitomycin], for which the IC50 in the series on HCT116 was found to be 6650 nM. This compound gave an IC50 with HepG2 of 2480 nM. Moreover, the “free drug mitomycin detected” value in “Human plasma stability” (human plasma incubation, 10 μM, 37° C.) is on record as “Less than 2%”. Also, the half-life at 10 μM in the series “Human plasma stability” (human, plasma) is > 15 h. In addition, in the series with Balb/c mice (setting [2]), the appearance entry is listed as “no abnormal appearance” and the “body weight (loss)” value is listed as < 10%. Further, the “increase of mice maximum tolerated dose (MTD) as compared with parent drug mitomycin” value with Balb/c mice (Balb/c mice) was “at least 20 fold”. Moreover, the “tumor growth T/C versus untreated control” value in series [1] (50 mg/kg, p<0.01) is listed as 36.4%.

The values above are taken from patent US9579317B2, “Peptide-drug conjugates” (JiaRui Biopharmaceuticals, Ltd., priority 2014, dated 2017).
